From publication PMC11397024, “Strategic Fluorination to Achieve a Potent, Selective, Metabolically Stable, and Orally Bioavailable Inhibitor of CSNK2” (Molecules, 2024)
“Also recorded” adds a separate entry of the source.

What was measured:
PHKG1 = molecular target: T1, PHKG1 (Homo sapiens, UniProt Q16816); experiment: NanoBRET dose-response PHKG1; assay type: cell-based; details: highest concentration tested 30 μM
T1 construct: purchased Promega (NanoBRET Target Engagement K192 Kinase Selectivity System)
T1 sequence (Q16816 whole entry): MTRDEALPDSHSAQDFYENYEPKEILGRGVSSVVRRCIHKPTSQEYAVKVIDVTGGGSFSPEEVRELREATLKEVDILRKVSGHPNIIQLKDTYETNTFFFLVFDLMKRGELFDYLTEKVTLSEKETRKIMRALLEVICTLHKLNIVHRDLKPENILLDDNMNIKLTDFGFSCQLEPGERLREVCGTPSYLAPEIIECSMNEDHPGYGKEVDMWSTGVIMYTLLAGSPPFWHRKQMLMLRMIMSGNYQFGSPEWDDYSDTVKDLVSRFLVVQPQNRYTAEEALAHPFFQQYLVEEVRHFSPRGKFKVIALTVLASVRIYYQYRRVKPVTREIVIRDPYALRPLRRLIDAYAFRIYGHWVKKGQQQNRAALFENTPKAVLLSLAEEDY

CSNK2 = experiment: In vitro inhibition of phosphorylation of EIF2S2; assay type: cell-based, Human; details: A549-ACE2 cells, 1 μM and 5 μM, 24 h, Western blot
[1] = Hepatocyte stability, mouse; assay type: in vitro ADME; details: male, CD-1, cryopreserved hepatocytes, over 2 h
Method: Human cryopreserved hepatocytes were supplied by BioIVT (lot QZW, 10 pooled donors, Westbury, NY, USA). Mouse cryopreserved hepatocytes were supplied by BioIVT (lot ZPG, pooled male CD-1). Vials of cryopreserved hepatocytes were removed from storage and thawed in a 37 °C water bath with gentle shaking, and then the contents were poured into a 50 mL thawing medium conical tube. Vials were centrifuged at 100× g for 10 min at room temperature. The thawing medium was aspirated, and hepatocytes were resuspended with a serum-free incubation medium to yield ~1.5 × 10^6 cells/mL. Cell viability and density were counted using AO/PI fluorescence staining, and then cells were diluted with a serum-free incubation medium to a working cell density of 0.5 × 10^6 viable cells/mL. Aliquots of 198 μL of hepatocytes were dispensed into each well of a 96-well noncoated plate. The plate was placed in an incubator for approximately 10 min. […] Peak areas were determined from extracted ion chromatograms, and the slope value, k, was determined by linear regression of the natural logarithm of the remaining percentage of the parent drug vs. incubation time curve. The intrinsic clearance (CLint in μL/min/10^6 cells) was calculated using the relationship CLint = kV/N, where V is the incubation volume (0.2 mL) and N is the number of hepatocytes per well (0.1 × 10^6 cells). […]

CLK2 = molecular target: T2, CLK2 (Homo sapiens, UniProt P49760); experiment: NanoBRET K192; assay type: cell-based
T2 construct: expressed in transfected cells; host or cells: HEK293
T2 sequence (P49760 whole entry): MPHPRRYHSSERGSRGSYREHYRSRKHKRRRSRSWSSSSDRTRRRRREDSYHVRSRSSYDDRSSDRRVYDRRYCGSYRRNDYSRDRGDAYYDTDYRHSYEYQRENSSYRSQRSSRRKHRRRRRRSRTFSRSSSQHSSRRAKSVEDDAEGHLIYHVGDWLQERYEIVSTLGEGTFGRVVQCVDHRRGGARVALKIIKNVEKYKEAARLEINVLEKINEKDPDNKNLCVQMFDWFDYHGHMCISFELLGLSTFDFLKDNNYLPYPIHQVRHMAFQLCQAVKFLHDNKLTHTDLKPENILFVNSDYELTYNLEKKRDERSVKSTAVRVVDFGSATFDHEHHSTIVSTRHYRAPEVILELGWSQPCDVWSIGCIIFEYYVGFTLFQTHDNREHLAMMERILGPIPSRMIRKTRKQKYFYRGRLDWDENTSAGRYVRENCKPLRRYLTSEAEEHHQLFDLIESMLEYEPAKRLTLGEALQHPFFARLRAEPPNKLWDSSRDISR
Method: (§1) The K192 selectivity assay was run according to the Draft Promega technical manual, NanoBRET^TM Target Engagement K192 Kinase Selectivity System. Reagents were supplied by Promega (Promega NP 4101). For the assay, DNA from the prepared kinase vector panel plates A and B were mixed with Fugene in 96-well plates (Corning 3917) and incubated at room temperature for 30 min. The NanoLuc® Low control vector pNL1.1.CMV [Nluc/CMV] Vector (Cat.# N1091) and the transfection control vector NanoLuc®-HIPK2 Fusion Vector (Cat.# NV3221) were used as controls.
(§2) HEK293 cells were grown to 75–95% confluency in DMEM (Gibco 11995-065) supplemented with FBS (Avantor 97068-085) at 37 °C in […]. On the first day of the assay, cells were harvested and resuspended in Opti-MEM (Gibco 11058-021) supplemented with 1% FBS (Avantor 97068-085) at 2.5 × 10^5 cells per mL. A volume of 60 μL of cell suspension was mixed with 10 μL of prepared DNA (10X concentration) and 30 μL of Fugene (30 μL/mL in Opti-MEM) as outlined by Promega and incubated overnight at 37 °C in a 5% CO2 incubator.
(§3) On day two of the assay, 5 μL of 20X K10 tracer was prepared and added at concentrations recommended by Promega. Then, 10 μL of test compounds at 100 μM in Opti-MEM (diluted from a 10 mM solution in DMSO) was added to the test wells while an equivalent volume of Opti-MEM was added to the high-control wells. Plates were kept at 37 °C in a 5% CO2 incubator for two hours. After two hours, plates were allowed to equilibrate to room temperature for 15 min. A solution of 3X Complete Substrate plus Inhibitor Solution was freshly prepared, consisting of a 1:166 dilution of NanoBRET™ Nano-Glo® Substrate plus a 1:500 dilution of Extracellular NanoLuc® Inhibitor in Opti-MEM® medium without serum or phenol red. A 50 μL volume of the 3X Complete Substrate plus Inhibitor Solution was added to each assay well, including control wells. After 2–3 min, the plate was shaken at 300 RPM for 10 s, and the donor emission wavelength (450 nm) and acceptor emission wavelength (610 nm) were measured using the Glomax® Discover System.
(§4) As a quality check, the donor signal-to-background ratio was calculated for each individual kinase by dividing the mean donor signal for each kinase by the mean donor signal for the signal-to-background control wells. Fractional occupancy of the test drug for each kinase was determined using the following formula:Occupancy (%) = [1 − (Sample − Bottom)/(Top − Bottom)] × 100 where

ICK = molecular target: T3, ICK (Homo sapiens, UniProt Q9UPZ9); experiment: NanoBRET K192; assay type: cell-based; details: HEK293
T3 construct: host or cells: HEK293
Method: as §1, §2, §3, §4

TNK1 = molecular target: T4, TNK1 (Homo sapiens, UniProt Q13470); experiment: NanoBRET K192; assay type: cell-based; details: HEK293
T4 construct: purchased Promega (NanoBRET Target Engagement K192 Kinase Selectivity System)
T4 sequence (Q13470 whole entry): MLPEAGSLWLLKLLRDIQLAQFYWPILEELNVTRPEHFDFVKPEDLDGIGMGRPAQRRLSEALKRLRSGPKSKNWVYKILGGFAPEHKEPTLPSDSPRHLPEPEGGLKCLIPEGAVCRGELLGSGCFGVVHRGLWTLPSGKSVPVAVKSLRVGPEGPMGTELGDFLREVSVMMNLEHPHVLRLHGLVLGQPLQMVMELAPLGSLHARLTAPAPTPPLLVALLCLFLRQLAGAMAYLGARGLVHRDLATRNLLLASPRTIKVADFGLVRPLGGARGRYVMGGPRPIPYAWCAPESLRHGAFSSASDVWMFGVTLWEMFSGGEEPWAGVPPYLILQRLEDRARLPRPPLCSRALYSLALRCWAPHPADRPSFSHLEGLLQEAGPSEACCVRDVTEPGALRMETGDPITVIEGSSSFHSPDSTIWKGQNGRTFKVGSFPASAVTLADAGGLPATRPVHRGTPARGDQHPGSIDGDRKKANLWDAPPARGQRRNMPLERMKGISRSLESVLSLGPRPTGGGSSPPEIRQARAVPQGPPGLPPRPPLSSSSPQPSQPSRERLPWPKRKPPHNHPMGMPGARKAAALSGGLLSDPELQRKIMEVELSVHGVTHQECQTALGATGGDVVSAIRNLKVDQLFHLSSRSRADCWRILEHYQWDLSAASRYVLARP
Method: as §1, §2, §3, §4

NEK11 = molecular target: T5, NEK11 (Homo sapiens, UniProt Q8NG66); experiment: NanoBRET K192; assay type: cell-based; details: HEK293
T5 construct: purchased Promega (NanoBRET Target Engagement K192 Kinase Selectivity System)
T5 sequence (Q8NG66 whole entry): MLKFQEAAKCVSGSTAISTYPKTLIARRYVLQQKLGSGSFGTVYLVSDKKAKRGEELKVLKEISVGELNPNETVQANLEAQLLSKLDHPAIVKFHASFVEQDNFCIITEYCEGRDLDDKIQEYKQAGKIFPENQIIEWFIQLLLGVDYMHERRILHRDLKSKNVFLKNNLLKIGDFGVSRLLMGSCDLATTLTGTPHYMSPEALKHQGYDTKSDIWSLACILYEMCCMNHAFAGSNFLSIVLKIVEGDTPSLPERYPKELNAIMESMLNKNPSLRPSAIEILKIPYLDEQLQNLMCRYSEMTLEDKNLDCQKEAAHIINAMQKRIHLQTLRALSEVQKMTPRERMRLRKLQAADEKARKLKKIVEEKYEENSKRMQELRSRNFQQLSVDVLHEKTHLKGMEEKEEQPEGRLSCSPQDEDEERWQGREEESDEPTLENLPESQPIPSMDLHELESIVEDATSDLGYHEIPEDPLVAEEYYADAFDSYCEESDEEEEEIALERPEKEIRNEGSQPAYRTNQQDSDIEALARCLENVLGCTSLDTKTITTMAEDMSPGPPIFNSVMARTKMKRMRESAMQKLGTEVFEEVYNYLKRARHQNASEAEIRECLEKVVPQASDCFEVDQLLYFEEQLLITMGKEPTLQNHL
Method: as §1, §2, §3, §4

PLK2 = molecular target: T6, PLK2 (Homo sapiens, UniProt Q9NYY3); experiment: NanoBRET K192; assay type: cell-based; details: HEK293
T6 construct: purchased Promega (NanoBRET Target Engagement K192 Kinase Selectivity System)
Method: as §1, §2, §3, §4

ABL2 = molecular target: T7, ABL2 (Homo sapiens, UniProt P42684); experiment: NanoBRET K192; assay type: cell-based; details: HEK293
T7 construct: purchased Promega (NanoBRET Target Engagement K192 Kinase Selectivity System)
Method: as §1, §2, §3, §4

STK38L = molecular target: T8, STK38L (Homo sapiens, UniProt Q9Y2H1); experiment: NanoBRET K192; assay type: cell-based; details: HEK293
T8 construct: purchased Promega (NanoBRET Target Engagement K192 Kinase Selectivity System)
Method: as §1, §2, §3, §4

CDK9 + K = molecular target: T9, CDK9 + K (Homo sapiens, UniProt P50750); experiment: NanoBRET K192; assay type: cell-based; details: HEK293
T9 construct: purchased Promega (NanoBRET Target Engagement K192 Kinase Selectivity System)
Method: as §1, §2, §3, §4

MAP3K19 = molecular target: T10, MAP3K19 (Homo sapiens, UniProt Q56UN5); experiment: NanoBRET K192; assay type: cell-based; details: HEK293
T10 construct: purchased Promega (NanoBRET Target Engagement K192 Kinase Selectivity System)
T10 sequence (Q56UN5 whole entry): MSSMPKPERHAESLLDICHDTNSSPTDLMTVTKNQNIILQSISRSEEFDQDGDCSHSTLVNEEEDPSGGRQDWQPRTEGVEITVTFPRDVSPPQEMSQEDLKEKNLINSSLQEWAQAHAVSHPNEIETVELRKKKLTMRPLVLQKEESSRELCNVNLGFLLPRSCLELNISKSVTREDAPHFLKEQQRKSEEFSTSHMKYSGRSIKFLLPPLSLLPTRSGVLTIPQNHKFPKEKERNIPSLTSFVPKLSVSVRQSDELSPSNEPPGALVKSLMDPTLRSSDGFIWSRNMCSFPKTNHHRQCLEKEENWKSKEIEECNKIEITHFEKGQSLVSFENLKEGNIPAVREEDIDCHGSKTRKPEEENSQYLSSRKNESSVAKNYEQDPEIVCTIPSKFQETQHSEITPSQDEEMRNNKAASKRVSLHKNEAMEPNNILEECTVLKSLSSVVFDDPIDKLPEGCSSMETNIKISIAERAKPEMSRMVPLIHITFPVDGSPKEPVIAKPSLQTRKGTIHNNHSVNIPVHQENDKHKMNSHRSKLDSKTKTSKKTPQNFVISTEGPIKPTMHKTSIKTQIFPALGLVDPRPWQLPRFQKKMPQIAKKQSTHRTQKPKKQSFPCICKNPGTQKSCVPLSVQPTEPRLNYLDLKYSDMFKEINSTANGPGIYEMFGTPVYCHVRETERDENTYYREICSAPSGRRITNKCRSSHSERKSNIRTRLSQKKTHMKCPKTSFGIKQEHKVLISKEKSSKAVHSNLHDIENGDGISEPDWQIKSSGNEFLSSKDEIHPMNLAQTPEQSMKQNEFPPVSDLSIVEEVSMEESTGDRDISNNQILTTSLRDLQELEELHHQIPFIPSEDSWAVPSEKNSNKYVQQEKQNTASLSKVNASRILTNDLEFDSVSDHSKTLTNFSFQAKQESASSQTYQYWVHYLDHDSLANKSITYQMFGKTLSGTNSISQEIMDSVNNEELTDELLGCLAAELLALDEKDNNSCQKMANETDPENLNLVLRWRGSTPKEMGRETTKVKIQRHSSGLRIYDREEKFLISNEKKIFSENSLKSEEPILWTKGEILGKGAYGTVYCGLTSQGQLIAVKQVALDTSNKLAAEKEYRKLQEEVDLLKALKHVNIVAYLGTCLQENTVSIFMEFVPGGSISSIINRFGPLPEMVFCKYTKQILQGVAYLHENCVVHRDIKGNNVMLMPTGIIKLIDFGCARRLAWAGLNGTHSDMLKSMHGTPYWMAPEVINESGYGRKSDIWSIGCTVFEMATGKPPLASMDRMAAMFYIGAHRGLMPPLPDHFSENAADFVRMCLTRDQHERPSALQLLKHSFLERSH
Method: as §1, §2, §3, §4

TEK = molecular target: T11, TEK (Homo sapiens, UniProt Q02763); experiment: NanoBRET K192; assay type: cell-based; details: HEK293
T11 construct: purchased Promega (NanoBRET Target Engagement K192 Kinase Selectivity System)
T11 sequence (Q02763 23-1124): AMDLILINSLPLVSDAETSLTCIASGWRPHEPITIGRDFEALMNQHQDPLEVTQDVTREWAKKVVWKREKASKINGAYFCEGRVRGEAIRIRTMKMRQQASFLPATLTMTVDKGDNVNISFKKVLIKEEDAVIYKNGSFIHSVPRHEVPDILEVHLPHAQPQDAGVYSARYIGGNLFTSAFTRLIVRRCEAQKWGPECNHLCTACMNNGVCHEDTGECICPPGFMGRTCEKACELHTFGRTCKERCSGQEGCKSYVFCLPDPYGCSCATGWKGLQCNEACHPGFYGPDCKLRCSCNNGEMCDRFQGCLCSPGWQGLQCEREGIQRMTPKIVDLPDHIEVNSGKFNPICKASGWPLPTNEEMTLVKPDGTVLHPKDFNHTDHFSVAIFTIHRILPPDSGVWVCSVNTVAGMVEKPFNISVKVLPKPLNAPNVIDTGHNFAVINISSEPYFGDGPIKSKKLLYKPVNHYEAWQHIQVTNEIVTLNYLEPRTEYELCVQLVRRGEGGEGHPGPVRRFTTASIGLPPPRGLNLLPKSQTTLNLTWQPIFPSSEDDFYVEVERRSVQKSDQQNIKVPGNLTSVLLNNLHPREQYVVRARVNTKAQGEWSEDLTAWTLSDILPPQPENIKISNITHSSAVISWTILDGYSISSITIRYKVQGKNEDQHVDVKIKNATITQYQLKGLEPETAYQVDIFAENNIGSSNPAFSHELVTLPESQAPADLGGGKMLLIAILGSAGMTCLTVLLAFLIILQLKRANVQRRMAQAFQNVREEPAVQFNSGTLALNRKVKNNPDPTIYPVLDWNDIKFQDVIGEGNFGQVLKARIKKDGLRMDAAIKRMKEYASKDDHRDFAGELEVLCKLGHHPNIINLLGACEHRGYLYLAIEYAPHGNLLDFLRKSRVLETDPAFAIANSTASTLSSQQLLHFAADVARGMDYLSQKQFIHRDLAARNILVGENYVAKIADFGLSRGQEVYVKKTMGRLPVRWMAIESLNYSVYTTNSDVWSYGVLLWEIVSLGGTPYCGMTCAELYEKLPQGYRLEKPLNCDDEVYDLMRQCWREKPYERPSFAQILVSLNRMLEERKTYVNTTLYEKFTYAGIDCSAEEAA
Method: as §1, §2, §3, §4

LIMK2 = molecular target: T12, LIMK2 (Homo sapiens, UniProt P53671); experiment: NanoBRET K192; assay type: cell-based; details: HEK293
T12 construct: purchased Promega (NanoBRET Target Engagement K192 Kinase Selectivity System)
Method: as §1, §2, §3, §4

CCC(=O)Nc1cc(Nc2cc(NC3CC3)n3ncc(C#N)c3n2)c(F)cc1N1CCC[C@H](NC)C1 [Compound 2, (S)-N-(5-((3-cyano-7-(cyclopropylamino)pyrazolo[1,5-a]pyrimidin-5-yl)amino)-4-fluoro-2-(3-(methylamino)piperidin-1-yl)phenyl)propionamide]
IC50 (PHKG1): > 30 µM
phosphorylation levels of the CSNK2 substrate EIF2S2 (CSNK2): inhibited; also recorded: dose-dependent reduction
CLint scaled at 1 μM [1]: 180 mL/min/kg
% occupancy at 10 μM (CLK2; CLK2, HEK293): 85%
receptor occupancy at 10 µM (CLK2; HEK293, CLK2): 84.8%
receptor occupancy at 10 µM (ICK): -6.1%
receptor occupancy at 10 µM (TNK1): 6.8%
receptor occupancy at 10 µM (NEK11): 19.1%
receptor occupancy at 10 µM (PLK2): 29.6%
receptor occupancy at 10 µM (ABL2): 9.4%
receptor occupancy at 10 µM (STK38L): 4%
receptor occupancy at 10 µM (CDK9 + K): 19.8%
receptor occupancy at 10 µM (MAP3K19): 2.4%
receptor occupancy at 10 µM (TEK): 5.2%
receptor occupancy at 10 µM (LIMK2): 1.1%
